# Measured values published in ChEMBL document CHEMBL3885861, “Open TG-GATES”.
# Organism: Rattus norvegicus
# Assay: Open TG-GATES - Regimen: Single
# Format: toxicity, organism-based, Sprague-Dawley
# Parameters: regimen Single, gender Male, age 6 weeks
# Details: in vivo, po, 50 mg/kg, route gavage, dose level High; for ALT / AST / BUN / CRE / Ca / Cl / DBIL / GLC / IP / K / LDH / Na / PL / RALB / TBIL / TC / TG / TP / gamma-GTP / A/G / ALP: tissue Plasma; for APTT / Bas / Eos / Fbg / Hb / Ht / Lym / MCH / MCHC / MCV / Mono / Neu / PT / Plat / RBC / Ret / WBC: tissue Blood; for KIDNEY_L / KIDNEY_R / KIDNEY_TOTAL: tissue Kidney; for LIVER: tissue Liver
smiles,measurement,setting,value
COc1ccc2c(c1)c(CC(=O)O)c(C)n2C(=O)c1ccc(Cl)cc1 [INDOMETHACIN],ALT,3 h,41.2 IU/L
same,AST,3 h,75 IU/L
same,BUN,3 h,11.4 mg/dL
same,CRE,3 h,0.4 mg/dL
same,Ca,3 h,10.4 mg/dL
same,Cl,3 h,102 meq/L
same,DBIL,3 h,0.072 mg/dL
same,GLC,3 h,217.4 mg/dL
same,IP,3 h,10.5 mg/dL
same,K,3 h,3.9 meq/L
same,LDH,3 h,221 IU/L
same,Na,3 h,140.4 meq/L
same,PL,3 h,125.4 mg/dL
same,RALB,3 h,3.3 g/dL
same,TBIL,3 h,0.1 mg/dL
same,TC,3 h,69.6 mg/dL
same,TG,3 h,43.4 mg/dL
same,TP,3 h,5.4 g/dL
same,gamma-GTP,3 h,1 IU/L
same,TERMINAL_BW,6 h,223.2 g
same,APTT,6 h,18.3 s
same,Bas,6 h,0%
same,Eos,6 h,0.4%
same,Fbg,6 h,214.4 mg/dL
same,Hb,6 h,13.7 g/dL
same,Ht,6 h,37.2%
same,Lym,6 h,64%
same,MCH,6 h,22.4 pg
same,MCHC,6 h,36.9%
same,MCV,6 h,60.8 fL
same,Mono,6 h,4.6%
same,Neu,6 h,28.6%
same,PT,6 h,12.3 s
same,Plat,6 h,113.8 x10_4/uL
same,RBC,6 h,612.2 x10_4/ul
same,Ret,6 h,8%
same,WBC,6 h,123.9 x10_2/uL
same,KIDNEY_L,6 h,0.9 g
same,KIDNEY_R,6 h,0.9 g
same,KIDNEY_TOTAL,6 h,1.9 g
same,LIVER,6 h,9.5 g
same,A/G,6 h,1.7
same,ALP,6 h,705.2 IU/L
same,ALT,6 h,35.4 IU/L
same,AST,6 h,73 IU/L
same,BUN,6 h,12.8 mg/dL
same,CRE,6 h,0.4 mg/dL
same,Ca,6 h,10.6 mg/dL
same,Cl,6 h,102.6 meq/L
same,DBIL,6 h,0.08 mg/dL
same,GLC,6 h,194.2 mg/dL
same,IP,6 h,9.4 mg/dL
same,K,6 h,4.1 meq/L
same,LDH,6 h,211.2 IU/L
same,Na,6 h,140.4 meq/L
same,PL,6 h,120.6 mg/dL
same,RALB,6 h,3.3 g/dL
same,TBIL,6 h,0.1 mg/dL
same,TC,6 h,64.8 mg/dL
same,TG,6 h,60.2 mg/dL
same,TP,6 h,5.3 g/dL
same,gamma-GTP,6 h,1 IU/L
same,TERMINAL_BW,9 h,222.5 g
same,APTT,9 h,19 s
same,Bas,9 h,0%
same,Eos,9 h,0.2%
same,Fbg,9 h,215.2 mg/dL
same,Hb,9 h,13.7 g/dL
same,Ht,9 h,36.9%
same,Lym,9 h,68.4%
same,MCH,9 h,22.5 pg
same,MCHC,9 h,37.2%
same,MCV,9 h,60.4 fL
same,Mono,9 h,3.8%
same,Neu,9 h,24.8%
same,PT,9 h,12.2 s
same,Plat,9 h,113.6 x10_4/uL
same,RBC,9 h,610.6 x10_4/ul
same,Ret,9 h,8%
same,WBC,9 h,107.9 x10_2/uL
same,KIDNEY_L,9 h,1 g
same,KIDNEY_R,9 h,1 g
same,KIDNEY_TOTAL,9 h,1.9 g
same,LIVER,9 h,9 g
same,A/G,9 h,1.7
same,ALP,9 h,738.8 IU/L
same,ALT,9 h,30.4 IU/L
same,AST,9 h,68.4 IU/L
same,BUN,9 h,12.8 mg/dL
same,CRE,9 h,0.4 mg/dL
same,Ca,9 h,10.3 mg/dL
same,Cl,9 h,103.8 meq/L
same,DBIL,9 h,0.072 mg/dL
same,GLC,9 h,200.8 mg/dL
same,IP,9 h,9.9 mg/dL
same,K,9 h,4.1 meq/L
same,LDH,9 h,199 IU/L
same,Na,9 h,140.6 meq/L
same,PL,9 h,126.6 mg/dL
same,RALB,9 h,3.3 g/dL
same,TBIL,9 h,0.1 mg/dL
same,TC,9 h,69.2 mg/dL
same,TG,9 h,40.8 mg/dL
same,TP,9 h,5.2 g/dL
same,gamma-GTP,9 h,1.2 IU/L
same,TERMINAL_BW,24 h,230 g
same,APTT,24 h,21.7 s
same,Bas,24 h,0%
same,Eos,24 h,0%
same,Fbg,24 h,260.8 mg/dL
same,Hb,24 h,9.5 g/dL
same,Ht,24 h,27%
same,Lym,24 h,61.4%
same,MCH,24 h,21.3 pg
same,MCHC,24 h,35.1%
same,MCV,24 h,60.6 fL
same,Mono,24 h,2.8%
same,Neu,24 h,33.4%
same,PT,24 h,12.7 s
same,Plat,24 h,67.9 x10_4/uL
same,RBC,24 h,448.8 x10_4/ul
same,Ret,24 h,8.4%
same,WBC,24 h,122.6 x10_2/uL
same,KIDNEY_L,24 h,1 g
same,KIDNEY_R,24 h,1 g
same,KIDNEY_TOTAL,24 h,2 g
same,LIVER,24 h,10.4 g
same,A/G,24 h,1.2
same,ALP,24 h,484.2 IU/L
same,ALT,24 h,25.2 IU/L
same,AST,24 h,48 IU/L
same,BUN,24 h,21.6 mg/dL
same,CRE,24 h,0.4 mg/dL
same,Ca,24 h,9.4 mg/dL
same,Cl,24 h,106.2 meq/L
same,DBIL,24 h,0.056 mg/dL
same,GLC,24 h,167.8 mg/dL
same,IP,24 h,8.6 mg/dL
same,K,24 h,4.2 meq/L
same,LDH,24 h,145.2 IU/L
same,Na,24 h,141.2 meq/L
same,PL,24 h,114 mg/dL
same,RALB,24 h,1.9 g/dL
same,TBIL,24 h,0.096 mg/dL
same,TC,24 h,60.4 mg/dL
same,TG,24 h,122.8 mg/dL
same,TP,24 h,3.5 g/dL
same,gamma-GTP,24 h,1 IU/L
